Key:
Plasmodium falciparum = test: Inhibition of wild-type Plasmodium falciparum full length PFB0815W (M1 to S524 residues) expressed in mammalian expression system assessed as residual activity at 50 nM by Kinomescan method relative to control
[1] = target: Ephrin type-A receptor 3 (Homo sapiens) (UniProt P29320); test: Inhibition of wild-type human partial length EPHA3 (D604 to K889 residues) expressed in bacterial expression system assessed as residual activity at 50 nM by Kinomescan method relative to control
[2] = target: Serine/threonine-protein kinase 32B (Homo sapiens) (UniProt Q9NY57); test: Inhibition of wild-type human full length YANK2 (M1 to S414 residues) expressed in bacterial expression system assessed as residual activity at 50 nM by Kinomescan method relative to control
[3] = target: Mitogen-activated protein kinase kinase kinase kinase 2 (Homo sapiens) (UniProt Q12851); test: Inhibition of human GCK (M1 to G318 residues) expressed in mammalian expression system assessed as residual activity at 50 nM by KINOMEscan assay relative to control
[4] = target: Phosphatidylinositol 4-kinase beta (Homo sapiens) (UniProt Q9UBF8); test: Inhibition of wild-type human full length PIK4CB (M1 to M828 residues) expressed in mammalian expression system assessed as residual activity at 50 nM by Kinomescan method relative to control
[5] = target: Membrane-associated tyrosine- and threonine-specific cdc2-inhibitory kinase (Homo sapiens) (UniProt Q99640); test: Inhibition of wild-type human partial length MYT1 (A88 to G366 residues) expressed in bacterial expression system assessed as residual activity at 50 nM by Kinomescan method relative to control
[6] = target: Non-receptor tyrosine-protein kinase TNK1 (Homo sapiens) (UniProt Q13470); test: Inhibition of wild-type human full length TNK1 (M1 to P661 residues) expressed in bacterial expression system assessed as residual activity at 50 nM by Kinomescan method relative to control
[7] = system: Phosphatidylinositol 4,5-bisphosphate 3-kinase catalytic subunit alpha isoform (Homo sapiens), P42336 [M1043I]; test: Inhibition of human partial length PIK3CA M1043I mutant (R108 to N1068 residues) expressed in mammalian expression system assessed as residual activity at 50 nM by Kinomescan method relative to control
[8] = target: Serine/threonine-protein kinase 17A (Homo sapiens) (UniProt Q9UEE5); test: Inhibition of wild-type human partial length DRAK1 (R32 to E363 residues) expressed in bacterial expression system assessed as residual activity at 50 nM by Kinomescan method relative to control
[9] = target: Serine/threonine-protein kinase DCLK3 (Homo sapiens) (UniProt Q9C098); test: Inhibition of wild-type human partial length DCAMKL3 (E140 to V628 residues) expressed in bacterial expression system assessed as residual activity at 50 nM by Kinomescan method relative to control
[10] = target: Mitogen-activated protein kinase kinase kinase 10 (Homo sapiens) (UniProt Q02779); test: Inhibition of wild-type human partial length MLK2 (V52 to W380 residues) expressed in bacterial expression system assessed as residual activity at 50 nM by Kinomescan method relative to control
[11] = target: Serine/threonine-protein kinase PAK 3 (Homo sapiens) (UniProt O75914); test: Inhibition of wild-type human full length PAK3 (M1 to R544 residues) expressed in bacterial expression system assessed as residual activity at 50 nM by Kinomescan method relative to control
[12] = target: SRSF protein kinase 2 (Homo sapiens) (UniProt P78362); test: Inhibition of wild-type human full length SRPK2 (M1 to S686 residues) expressed in bacterial expression system assessed as residual activity at 50 nM by Kinomescan method relative to control
[13] = target: Dual specificity mitogen-activated protein kinase kinase 2 (Homo sapiens) (UniProt P36507); test: Inhibition of wild-type human full length MAP2K2 (M1 to V400 residues) expressed in mammalian expression system assessed as residual activity at 50 nM by Kinomescan method relative to control
[14] = target: TRAF2 and NCK-interacting protein kinase (Homo sapiens) (UniProt Q9UKE5); test: Inhibition of wild-type human partial length TNIK (D4 to K311 residues) expressed in bacterial expression system assessed as residual activity at 50 nM by Kinomescan method relative to control
[15] = target: Tyrosine-protein kinase HCK (Homo sapiens) (UniProt P08631); test: Inhibition of wild-type human full length HCK (M22 to P526 residues) expressed in bacterial expression system assessed as residual activity at 50 nM by Kinomescan method relative to control
[16] = target: Inhibitor of nuclear factor kappa-B kinase subunit beta (Homo sapiens) (UniProt O14920); test: Inhibition of wild-type human full length IKK-beta (M1 to S756 residues) expressed in mammalian expression system assessed as residual activity at 50 nM by Kinomescan method relative to control
[17] = target: 5'-AMP-activated protein kinase catalytic subunit alpha-2 (Homo sapiens) (UniProt P54646); test: Inhibition of wild-type human partial length AMPK alpha2 (M1 to E306 residues) expressed in bacterial expression system assessed as residual activity at 50 nM by Kinomescan method relative to control
[18] = target: Phosphatidylinositol 5-phosphate 4-kinase type-2 gamma (Homo sapiens) (UniProt Q8TBX8); test: Inhibition of wild-type human partial length PIP5K2C (M1 to A421 residues) expressed in mammalian expression system assessed as residual activity at 50 nM by Kinomescan method relative to control
[19] = target: TGF-beta receptor type-1 (Homo sapiens) (UniProt P36897); test: Inhibition of wild-type human partial length TGFBR1 (D179 to M503 residues) expressed in bacterial expression system assessed as residual activity at 50 nM by Kinomescan method relative to control
[20] = target: STE20/SPS1-related proline-alanine-rich protein kinase (Homo sapiens) (UniProt Q9UEW8); test: Inhibition of wild-type human partial length STLK3 (P43 to I357 residues) expressed in mammalian expression system assessed as residual activity at 50 nM by Kinomescan method relative to control
[21] = target: Bone morphogenetic protein receptor type-1A (Homo sapiens) (UniProt P36894); test: Inhibition of wild-type human partial length BMPR1A (Q214 to I532 residues) expressed in bacterial expression system assessed as residual activity at 50 nM by Kinomescan method relative to control
[22] = target: Casein kinase I isoform gamma-2 (Homo sapiens) (UniProt P78368); test: Inhibition of wild-type human full length CK1G2 (M1 to K415 residues) expressed in bacterial expression system assessed as residual activity at 50 nM by Kinomescan method relative to control
[23] = target: Phosphorylase b kinase gamma catalytic chain, liver/testis isoform (Homo sapiens) (UniProt P15735); test: Inhibition of wild-type human partial length PHKG2 (M1 to W300 residues) expressed in bacterial expression system assessed as residual activity at 50 nM by Kinomescan method relative to control
[24] = target: Ankyrin repeat and protein kinase domain-containing protein 1 (Homo sapiens) (UniProt Q8NFD2); test: Inhibition of wild-type human partial length SGK288 (M1 to A305 residues) expressed in mammalian expression system assessed as residual activity at 50 nM by Kinomescan method relative to control

Sequence of Mitogen-activated protein kinase kinase kinase 10 (Homo sapiens) (Q02779 whole entry, looked up, the tested form may be a part): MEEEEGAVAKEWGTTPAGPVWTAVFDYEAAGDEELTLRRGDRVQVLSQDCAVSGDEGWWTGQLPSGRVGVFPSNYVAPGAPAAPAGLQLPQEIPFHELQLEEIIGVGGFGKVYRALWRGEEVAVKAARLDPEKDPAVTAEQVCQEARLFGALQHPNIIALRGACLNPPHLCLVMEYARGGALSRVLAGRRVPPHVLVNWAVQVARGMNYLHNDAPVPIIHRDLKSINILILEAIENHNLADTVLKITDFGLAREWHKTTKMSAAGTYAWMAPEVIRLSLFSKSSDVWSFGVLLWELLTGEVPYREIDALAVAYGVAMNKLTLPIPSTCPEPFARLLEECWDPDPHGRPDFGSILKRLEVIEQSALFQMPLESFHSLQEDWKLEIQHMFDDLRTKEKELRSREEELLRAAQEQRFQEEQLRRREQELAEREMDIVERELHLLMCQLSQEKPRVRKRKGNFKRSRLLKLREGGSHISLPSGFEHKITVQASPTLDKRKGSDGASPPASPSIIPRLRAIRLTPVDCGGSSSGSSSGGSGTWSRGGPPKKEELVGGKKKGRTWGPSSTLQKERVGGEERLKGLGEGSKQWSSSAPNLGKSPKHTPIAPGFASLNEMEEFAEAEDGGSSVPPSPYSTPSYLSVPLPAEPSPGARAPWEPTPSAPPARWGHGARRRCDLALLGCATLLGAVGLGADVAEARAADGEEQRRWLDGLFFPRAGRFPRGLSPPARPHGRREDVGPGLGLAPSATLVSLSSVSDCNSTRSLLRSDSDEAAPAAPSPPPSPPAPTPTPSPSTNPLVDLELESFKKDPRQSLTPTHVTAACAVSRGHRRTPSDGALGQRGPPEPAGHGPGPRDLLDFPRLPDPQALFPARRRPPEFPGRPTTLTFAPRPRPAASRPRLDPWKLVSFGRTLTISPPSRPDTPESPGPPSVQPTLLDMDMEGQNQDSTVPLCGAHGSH
Sequence of Serine/threonine-protein kinase PAK 3 (Homo sapiens) (O75914 whole entry, looked up, the tested form may be a part): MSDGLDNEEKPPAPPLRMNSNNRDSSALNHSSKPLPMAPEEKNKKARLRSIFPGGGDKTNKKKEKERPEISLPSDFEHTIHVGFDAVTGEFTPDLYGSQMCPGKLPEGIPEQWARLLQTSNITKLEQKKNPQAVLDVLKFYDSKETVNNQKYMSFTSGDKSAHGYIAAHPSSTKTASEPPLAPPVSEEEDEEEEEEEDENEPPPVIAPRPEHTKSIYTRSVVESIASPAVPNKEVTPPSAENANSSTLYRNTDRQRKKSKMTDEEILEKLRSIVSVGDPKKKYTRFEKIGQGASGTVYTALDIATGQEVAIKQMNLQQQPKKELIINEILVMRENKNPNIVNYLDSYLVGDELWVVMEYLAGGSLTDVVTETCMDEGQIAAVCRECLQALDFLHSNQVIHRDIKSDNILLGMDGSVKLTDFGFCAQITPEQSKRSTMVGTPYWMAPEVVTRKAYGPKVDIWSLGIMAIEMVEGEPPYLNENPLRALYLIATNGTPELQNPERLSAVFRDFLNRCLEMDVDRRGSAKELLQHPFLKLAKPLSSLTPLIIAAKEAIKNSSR
Sequence of Tyrosine-protein kinase HCK (Homo sapiens) (P08631 2-526 limits assumed): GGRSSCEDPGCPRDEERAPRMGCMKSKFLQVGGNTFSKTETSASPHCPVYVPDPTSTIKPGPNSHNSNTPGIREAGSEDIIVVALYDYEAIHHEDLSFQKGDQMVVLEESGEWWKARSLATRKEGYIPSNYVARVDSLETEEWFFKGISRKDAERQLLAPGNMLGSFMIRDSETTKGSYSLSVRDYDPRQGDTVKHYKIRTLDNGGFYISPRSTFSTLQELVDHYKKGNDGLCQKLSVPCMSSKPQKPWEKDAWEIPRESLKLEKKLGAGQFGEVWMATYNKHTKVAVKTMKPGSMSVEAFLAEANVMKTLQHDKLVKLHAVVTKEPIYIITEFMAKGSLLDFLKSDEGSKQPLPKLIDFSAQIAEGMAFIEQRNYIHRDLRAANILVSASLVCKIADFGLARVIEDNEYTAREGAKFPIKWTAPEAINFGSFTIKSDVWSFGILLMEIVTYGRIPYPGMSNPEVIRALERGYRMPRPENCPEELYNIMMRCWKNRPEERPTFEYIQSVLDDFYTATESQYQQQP
Sequence of Casein kinase I isoform gamma-2 (Homo sapiens) (P78368 whole entry, looked up, the tested form may be a part, canonical isoform): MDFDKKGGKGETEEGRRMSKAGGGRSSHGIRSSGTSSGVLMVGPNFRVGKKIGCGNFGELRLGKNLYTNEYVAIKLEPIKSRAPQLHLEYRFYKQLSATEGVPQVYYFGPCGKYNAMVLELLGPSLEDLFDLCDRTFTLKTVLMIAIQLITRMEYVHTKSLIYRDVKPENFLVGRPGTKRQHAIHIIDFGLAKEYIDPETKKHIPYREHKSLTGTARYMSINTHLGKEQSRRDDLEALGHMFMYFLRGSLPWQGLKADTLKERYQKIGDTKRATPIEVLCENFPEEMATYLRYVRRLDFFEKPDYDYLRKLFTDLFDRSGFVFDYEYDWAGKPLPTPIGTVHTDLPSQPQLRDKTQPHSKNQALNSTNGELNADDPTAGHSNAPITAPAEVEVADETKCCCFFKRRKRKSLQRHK
Sequence of Bone morphogenetic protein receptor type-1A (Homo sapiens) (P36894 whole entry, the tested form may be a part, canonical isoform): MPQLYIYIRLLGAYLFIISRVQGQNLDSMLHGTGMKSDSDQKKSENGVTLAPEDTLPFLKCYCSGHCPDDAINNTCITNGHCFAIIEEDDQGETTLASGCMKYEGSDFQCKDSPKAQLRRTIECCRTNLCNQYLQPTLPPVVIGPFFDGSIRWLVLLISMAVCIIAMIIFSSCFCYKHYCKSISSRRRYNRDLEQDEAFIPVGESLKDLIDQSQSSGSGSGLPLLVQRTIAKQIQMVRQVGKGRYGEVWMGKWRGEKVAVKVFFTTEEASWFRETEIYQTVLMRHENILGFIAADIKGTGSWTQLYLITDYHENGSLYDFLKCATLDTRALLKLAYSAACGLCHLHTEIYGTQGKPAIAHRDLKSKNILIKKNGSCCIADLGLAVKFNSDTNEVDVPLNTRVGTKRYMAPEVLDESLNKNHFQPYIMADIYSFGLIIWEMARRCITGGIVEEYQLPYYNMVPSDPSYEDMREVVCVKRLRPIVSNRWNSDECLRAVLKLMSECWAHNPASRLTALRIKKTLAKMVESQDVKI
Sequence of Inhibitor of nuclear factor kappa-B kinase subunit beta (Homo sapiens) (O14920 whole entry, the tested form may be a part): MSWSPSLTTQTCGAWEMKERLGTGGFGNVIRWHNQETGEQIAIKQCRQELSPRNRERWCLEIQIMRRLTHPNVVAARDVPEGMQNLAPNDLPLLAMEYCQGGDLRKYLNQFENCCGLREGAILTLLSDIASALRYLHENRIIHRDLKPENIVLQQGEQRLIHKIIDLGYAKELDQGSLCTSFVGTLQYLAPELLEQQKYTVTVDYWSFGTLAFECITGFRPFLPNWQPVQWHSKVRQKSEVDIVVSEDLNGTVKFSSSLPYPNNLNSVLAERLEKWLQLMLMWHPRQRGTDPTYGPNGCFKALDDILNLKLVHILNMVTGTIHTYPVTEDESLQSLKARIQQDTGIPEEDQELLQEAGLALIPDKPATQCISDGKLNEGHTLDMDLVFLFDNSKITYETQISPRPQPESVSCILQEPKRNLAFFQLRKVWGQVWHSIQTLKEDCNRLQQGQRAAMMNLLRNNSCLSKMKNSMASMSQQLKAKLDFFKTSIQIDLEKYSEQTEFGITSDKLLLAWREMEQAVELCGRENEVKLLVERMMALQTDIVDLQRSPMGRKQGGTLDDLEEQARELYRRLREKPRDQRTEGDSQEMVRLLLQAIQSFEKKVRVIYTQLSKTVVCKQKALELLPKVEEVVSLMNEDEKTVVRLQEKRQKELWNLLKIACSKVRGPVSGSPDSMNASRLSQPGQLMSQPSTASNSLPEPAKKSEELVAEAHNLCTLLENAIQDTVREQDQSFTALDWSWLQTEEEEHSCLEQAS
Sequence of Phosphatidylinositol 5-phosphate 4-kinase type-2 gamma (Homo sapiens) (Q8TBX8 whole entry, the tested form may be a part): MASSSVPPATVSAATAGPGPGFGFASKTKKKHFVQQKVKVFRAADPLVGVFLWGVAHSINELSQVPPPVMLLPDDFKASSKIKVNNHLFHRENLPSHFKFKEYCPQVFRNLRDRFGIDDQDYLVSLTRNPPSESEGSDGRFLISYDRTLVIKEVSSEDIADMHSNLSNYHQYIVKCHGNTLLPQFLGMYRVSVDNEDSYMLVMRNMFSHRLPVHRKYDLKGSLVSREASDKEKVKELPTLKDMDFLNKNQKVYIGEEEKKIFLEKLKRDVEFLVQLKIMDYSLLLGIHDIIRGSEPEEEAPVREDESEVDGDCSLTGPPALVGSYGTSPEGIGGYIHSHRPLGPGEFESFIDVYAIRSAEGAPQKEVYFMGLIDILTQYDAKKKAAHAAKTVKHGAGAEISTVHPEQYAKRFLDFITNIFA
Sequence of Serine/threonine-protein kinase DCLK3 (Homo sapiens) (Q9C098 whole entry, the tested form may be a part): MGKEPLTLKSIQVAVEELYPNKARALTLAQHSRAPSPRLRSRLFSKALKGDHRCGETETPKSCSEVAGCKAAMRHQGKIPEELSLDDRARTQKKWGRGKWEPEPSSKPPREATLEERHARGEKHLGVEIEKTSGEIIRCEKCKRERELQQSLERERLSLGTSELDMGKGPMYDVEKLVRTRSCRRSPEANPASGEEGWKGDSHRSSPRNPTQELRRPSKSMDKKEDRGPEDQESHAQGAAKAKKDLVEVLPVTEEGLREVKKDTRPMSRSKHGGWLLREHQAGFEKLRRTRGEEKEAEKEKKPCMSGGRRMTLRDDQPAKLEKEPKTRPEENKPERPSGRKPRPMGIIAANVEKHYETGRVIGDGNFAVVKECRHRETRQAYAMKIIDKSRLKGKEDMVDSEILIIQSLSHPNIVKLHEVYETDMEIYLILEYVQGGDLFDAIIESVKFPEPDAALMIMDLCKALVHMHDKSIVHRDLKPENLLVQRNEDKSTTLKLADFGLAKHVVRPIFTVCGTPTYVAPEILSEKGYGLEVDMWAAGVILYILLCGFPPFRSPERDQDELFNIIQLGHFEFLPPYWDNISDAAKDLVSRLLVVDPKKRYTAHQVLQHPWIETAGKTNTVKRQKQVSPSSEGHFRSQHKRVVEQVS

Row | Compound | Activity (Plasmodium falciparum) | Activity [1] | Activity [2] | Activity [3] | Activity [4] | Activity [5] | Activity [6] | Activity [7] | Activity [8] | Activity [9] | Activity [10] | Activity [11] | Activity [12] | Activity [13] | Activity [14] | Activity [15] | Activity [16] | Activity [17] | Activity [18] | Activity [19] | other results
1 | CC1(C)[C@H](Nc2c(C(N)=O)cnn3cc(-c4ccccc4)cc23)CC[C@]1(C)N | 67% | 65% | 100% | 3.6% | 90% | 79% | 34% | 66% | 100% | 39% | 100% | 53% | 95% | 84% | 66% | 100% | 73% | 38% | 100% | 100% | Activity [20]: 100%; Activity [21]: 100%; Activity [22]: 100%; Activity [23]: 67%; Activity [24]: 100%
2 | COc1ccc(-c2cc3c(N[C@@H]4CC[C@](C)(N)C4(C)C)c(C(N)=O)cnn3c2)cn1 | 100% | 88% | 100% | 26% | 100% | 100% | 92% | 100% | 100% | 64% | 94% | 64% | 81% | 100% | 93% | 100% | 100% | 74% | 100% | 95% | Activity [20]: 84%; Activity [21]: 100%; Activity [22]: 82%; Activity [23]: 100%; Activity [24]: 100%
